Laboratory results reported in PubChem BioAssay (NCI).
Where “and” joins values, the source holds several entries; their conditions need not be identical. Identical values can stand only once.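 Assay format: 96-well plates, 48-hour exposure. GI50 marks 50% less growth. At the TGI there is no net growth.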

Experiments:
Test in all cases: NCI-60 cell line screen, 48 h
RPMI-8226 leukemia = system: RPMI-8226 leukemia
SK-MEL-28 melanoma = system: SK-MEL-28 melanoma
A498 renal = system: A498 renal
HT29 colon = system: HT29 colon
CAKI-1 renal = system: CAKI-1 renal
OVCAR-3 ovarian = system: OVCAR-3 ovarian
NCI-H460 lung = system: NCI-H460 lung
NCI-H522 lung = system: NCI-H522 lung
COLO 205 colon = system: COLO 205 colon
OVCAR-5 ovarian = system: OVCAR-5 ovarian

Row | Structure (SMILES) | GI50 (RPMI-8226 leukemia) [µM] | TGI (RPMI-8226 leukemia) [µM] | GI50 (SK-MEL-28 melanoma) [µM] | TGI (SK-MEL-28 melanoma) [µM] | GI50 (A498 renal) [µM] | TGI (A498 renal) [µM] | GI50 (HT29 colon) [µM] | TGI (HT29 colon) | GI50 (CAKI-1 renal) [µM] | TGI (CAKI-1 renal) [µM] | GI50 (OVCAR-3 ovarian) [µM] | TGI (OVCAR-3 ovarian) [µM] | GI50 (NCI-H460 lung) [µM] | TGI (NCI-H460 lung) [µM] | GI50 (NCI-H522 lung) [µM] | TGI (NCI-H522 lung) | GI50 (COLO 205 colon) [µM] | TGI (COLO 205 colon) [µM] | GI50 (OVCAR-5 ovarian) [µM] | TGI (OVCAR-5 ovarian) [µM]
1 | COc1nc(N)nc2c1ncn2[C@@H]1O[C@H](CO)[C@@H](O)[C@@H]1O | > 100 | > 100 | > 100 | > 100 | > 100 | > 100 | > 100 | > 100 µM | > 100 | > 100 | > 100 | > 100 | > 100 | > 100 | > 100 | > 100 µM | > 100 | > 100 | > 100 | > 100
2 | Cc1cc(=O)oc2c(OS(C)(=O)=O)c(OS(C)(=O)=O)ccc12 |  | > 100 |  | > 100 |  | > 100 |  | > 100 µM |  | > 100 |  | > 100 |  | > 100 |  | > 100 µM |  | > 100 |  | > 100
3 | CCn1c(-c2nonc2N)nc2cncc(C(=O)NCCNC)c21 | > 25 | > 25 | 12.9 | > 25 | 0.834 | > 19.8 | 0.817 | > 25 µM | 1.56 | 14.4 | > 23.9 | > 25 | 8.59 | > 25 | 13.1 | > 25 µM | 1.15 | 8.51 | 0.441 | > 25
4 | CCC[CH2][Sn]1([CH2]CCC)[O]CC(CN2CCOCC2)[O]1 (centres undefined) | 1.44 | 4.7 | 2.89 | 11.3 | 5.5 | 17.2 | 9.65 | 23.6 µM | 1.36 | 6.51 | 2.13 | 8.23 | 13.6 | 26.5 | 1.12 | 2.55 µM | 3.58 | 9.59 | 18.8 | 32.8
5 | NCCCNCCSSC/C=C\CSSCCNCCCN |  | > 100 |  | > 100 |  | > 100 |  | 31.4 µM and 27.5 µM |  | > 100 |  | > 100 |  | > 100 |  | 42.5 µM and 24.7 µM |  | > 100 |  | > 100
6 | COc1cc(/C=C2\C(=O)N(c3ccccc3)c3ccccc32)cc(OC)c1OC | 2.17 | 5.78 | 4.91 | 18.4 | 18.1 | 38.9 | 3.7 | 13.9 µM | 12.5 | 61.3 | 5.93 | 26.1 | 3.82 | > 100 | 6.31 | 23.3 µM | 14.4 | 71.3 | 14.1 | 29
7 | COC1=CC(c2ccc[nH]2)=N/C1=C\c1[nH]c(C)c(C(C)=O)c1C | 0.329 | 2.69 | 2.46 | > 100 | 18.1 | 57 | 0.088 | > 100 µM | 0.63 | > 100 | 0.178 | > 100 | 0.451 | > 22.8 | 1.6 |  | 0.79 | > 100 | > 100 | > 100
8 | COc1ccc2c(c1)/C(=C\c1c(Cl)n(C)c3ccccc13)C(=O)N2 | 1.76 | > 34.3 | 13.5 | > 55.4 | 0.611 | 4.31 | 0.574 | > 100 µM | 1.1 | 13.6 | 0.633 | 1.91 | 0.459 | 15.9 | 0.726 | 7.14 µM | 0.721 | 4.36 | 3.94 | 15.3
9 | COc1cccc(Cn2c(-c3nonc3NC(C)=O)nc3ccccc32)c1 | 5.34 | > 100 | 6.17 | > 100 | 0.426 | 6.53 | 3.28 | > 100 µM | 2.05 | > 100 | 6.56 | > 100 | 2.45 | > 100 | 2.95 | 90.3 µM | 3.45 | > 100 | 4.04 | > 100
10 | C=CC[C@@H]1/C=C(\C)C[C@H](C)C[C@H](OC)[C@H]2O[C@@](O)(C(=O)C(=O)N3CCCC[C@H]3C(=O)O[C@H](/C(C)=C/C3CC[C@@H](O)[C@H](OC)C3)[C@H](C)[C@@H](O)CC1=O)[C@H](C)C[C@@H]2OC (some centres undefined) | 8.59 | 32.2 | 15.2 | 29.2 | 9.95 | 24.3 | 17.6 | 33.5 µM | 12.9 | 33.4 | 14.2 | 27.2 | 13.7 | 27.9 | 12.7 | 27 µM | 19.3 | 36.6 | 17.2 | 37.2
11 | CCCc1nc(NC#N)nc(C(=O)NC23CC4CC(CC(C4)C2)C3)c1C |  | > 100 |  | > 100 |  | > 100 |  | > 100 µM |  | > 100 |  | > 100 |  | > 100 |  | > 100 µM |  | > 100 |  | > 100
